Measured values published in patent publication US12208159B2, “Compositions, methods and kits for treating a contact lens” (University of Houston System, priority 2016, dated 2025).
Values joined by “and” are separate entries in the source; they are usually repeats but may differ in a detail not shown here. Equal entries are not always repeated.

How the values were obtained:
[1] = Time course release of individual compounds from contact lenses; format: physicochemical; settings: Comfilcon A
Procedure: The modified Comfilcon A lenses are placed into individual wells of a 24 well plate with 1 mL PBS in each well at room temperature. The PBS solution is replaced with fresh PBS every hour for up to 8 h or 15 h, or every 10 min for 2 h or 6 h. The amount of fluorescent compound released into the collected PBS aliquots is quantified spectrophotometrically based on the above standard curve. The amount of F-Cip released into the collected PBS aliquots is quantified using LC-MS (LCQ Deca XP plus with Surveyor LC, Thermo Fisher, Waltham, MA) with electrospray ionization in positive ion mode. Samples ([…] each) are loaded onto the analytical column at […] (Kinetex XB-C18, 2.×50 mm, […], Phenomenex) with the following gradient: 0-3 min, 10-75% (B); 3-7.5 min, 75-91% (B). The mobile phase consists of (A) water containing 0.1% formic acid and (B) acetonitrile containing 0.1% formic acid. Mass spectrometric parameters are as follows: 250° C. capillary temperature, 45 units sheath gas, 10 units aux gas and 4.5 kV spray voltage. […]

[2] = Loading of molecules into commercial contact lenses (Comfilcon A); format: physicochemical
Procedure: (§1) Briefly, commercial lenses are individually immersed in wells of a 24 well plate, each containing 1 mL PBS solution of FITC-F ([…]), FITC ([…]), Cip (100 mM) or F-Cip (100 mM), and incubated for 18 h. Then the lenses are washed with PBS three times for 5 min each. All incubation and wash solutions are collected and the amount of each compound is quantified by spectrophotometry. Standard curves are generated with seven standard samples with known concentrations for each individual compound of interest. Specifically, fluorescent compounds FITC and FITC-F are quantified by fluorescence emission at 520 nm (lex. 485 nm), and Cip and F-Cip are quantified by absorbance at 275 nm. The amount of each compound in the above collected solutions is then measured with the standard curve. The amount of the compound incorporated into lenses was determined by subtracting the amount in solution from the total amount added initially.
(§2) Commercial lenses of the above 4 types were removed from blister packs, and blotted gently to remove excess solution. Contact lenses were placed individually into glass vials and immersed in 1 mL of FITC-C8F15 or FITC solution (15.6 μM in phosphate buffered saline) for 24 hours at room temperature. At the end of incubation, lenses were washed three times using phosphate buffered saline. […]

[3] = Loading of molecules into commercial contact lenses (Lotrafilcon B); format: physicochemical; settings: 24 hours at room temperature, listed as FITC-C8F15
Procedure: as §1, §2

[4] = test system: Pseudomonas aeruginosa (PA) ATCC 19660; test: Antibacterial activity of F-Cip (growth inhibition, absorbance at 620 nm); format: cell-based; settings: ATCC19660, P. aeruginosa ATCC 19660, 18 h at 37° C., n > 3
Procedure: The strain is inoculated and grown at 37° C. for 18 h. The bacterial suspension ([…]) is added into 100 mL of nutrient broth and incubated for 2 h to reach a log growth phase. The resulting bacterial suspension is adjusted to a concentration of ˜10^7 cfu/mL and […] are placed into each well of a 96 well plate. Fifty microliters of F-Cip solution are added into the 96 well plate and incubated at 37° C. for 18 h. The inhibition of microbial growth is determined by measuring the absorbance at 620 nm.

P. aeruginosa 19660 [5] = test: In vitro antimicrobial activity of F-Cip-loaded Comfilcon A contact lenses; format: cell-based, Pseudomonas aeruginosa; settings: Comfilcon A lenses loaded with the compound
P. aeruginosa 19660 [6] = test: Ex vivo porcine eye infection model, antimicrobial activity of loaded contact lenses; set-up: species or system Pseudomonas aeruginosa (porcine eyes); settings: Comfilcon A lenses modified with the compound, on infected scratched porcine eyes, 12 h
Procedure: Upon arrival, eyelids and connective tissues are removed and the porcine eyes are sanitized using 5% penicillin/streptomycin (Sigma-Aldrich, St. Louis, MO) for 1 h followed by washing thrice with PBS. Six scratch wounds with a 3×3 crosshatch pattern of length about 1 cm are created on each cornea using a 27G needle. The eyes are placed into holders and 100 ml of bacterial solution containing 10^6 CFU (see “Antibacterial activity of F-Cip” section discussed above) applied to each cornea. The eyes are left at room temperature in a biosafety cabinet for 5 h. After rinsing with 10 mL of PBS, control and modified Comfilcon A contact lenses are placed individually onto the eyes. […] One eye without scratches but incubated with bacteria served as an additional control. A custom-made apparatus is used to flow culture medium over the surface of the porcine eyes. […] Then 100 ml of the bacterial suspension from each sample was taken out and added into a 96-well plate in triplicate, and absorbance at 620 nm was measured and plotted as percentage of bacterial growth inhibition compared to the corneas infected with bacteria but without any treatments. […]

[7] = Lens transparency after modification (light transmission); settings: Comfilcon A lenses embedded with the compound
[8] = test system: human telomerase corneal epithelial cells (hTCEpi); format: cell-based
Procedure: Telomerase modified human corneal epithelial cells were seeded into wells of a 96 well plate with […] KGM-2 medium (Lonza Ltd, Switzerland) and incubated at 37° C. until ˜80% confluence. […] Cells treated with 0.05% benzalkonium chloride (BAC) and without any treatment served as controls. The plate was incubated at 37° C. for 18 h, and cell viability was determined using a cell counting kit-8 assay. […] All lenses are taken out, and cell viability was determined using a cell counting kit-8 assay (Dojindo Molecular Technologies, Inc. Japan).

In the case of fluorescein isothiocyanate [Compound 7], the release at plateau ([1]; solution exchange rate 1 mL/h) is reported as roughly 60%, the release profile ([1]; solution exchange rate 1 mL/h) is reported as “typical burst release profile” and the “time to reach release plateau (no more release)” value ([1]; solution exchange rate 1 mL/h) is reported as no more than 2 h. For the same compound, the “time to reach release plateau” value ([1]; solution exchange rate 6 mL/h) was no more than 50 min.

With `O=C(O)c1cc(NC(=S)NCC(F)(F)C(F)(F)C(F)(F)C(F)(F)C(F)(F)C(F)(F)C(F)(F)F)ccc1-c1c2ccc(=O)cc-2oc2cc(O)ccc12` [Compound 6] the “amount attached relative to the amount of FITC attached” value ([2]; Comfilcon A, 24 hours at room temperature, listed as FITC-C8F15) was 11 times and 9 times, the “amount attached relative to the amount of FITC attached” value [3] was 6.5 times and 5 times and the “duration of nearly linear release” value ([1]; solution exchange rate 1 mL/h) was 6 h. For the same compound, the release profile ([1]; solution exchange rate 1 mL/h) was “sustained profile”, the release rate ([1]; solution exchange rate 1 mL/h) was 10.5 % per hour and the “release reached at 15 h” value ([1]; solution exchange rate 1 mL/h, 15 h) was roughly 90%. For the same compound, the “duration of sustained linear release” value ([1]; solution exchange rate 6 mL/h) was 120 min, the release rate ([1]; solution exchange rate 6 mL/h) was 26.5 % per hour and the “time to reach release plateau” value ([1]; solution exchange rate 6 mL/h) was 270 min.

`O=C(O)c1cn(C2CC2)c2cc(N3CCNCC3)c(F)cc2c1=O` [Compound 12, Ciprofloxacin] gave an IC50 [4] of 130 ± 35 nM, a growth inhibition (P. aeruginosa 19660 [5]) of 35.2% and a bacterial growth inhibition (P. aeruginosa 19660 [6]) of 37.5±8.2%. For the same compound, the “amount loaded onto lens” value ([2]; Comfilcon A lenses, incubated 18 h in PBS solution) was 3.56±4.51 nmol/lens, the release at plateau ([1]; solution exchange rate 1 mL/h) was roughly 60% and the release profile ([1]; solution exchange rate 1 mL/h) was “typical burst release profile”. For the same compound, the “time to reach release plateau (no more release)” value ([1]; solution exchange rate 1 mL/h) was 3 h, the “transmission profile compared with fresh unmodified lens” value ([7]; between 200 nm and 800 nm) was “significantly overlap” and the “Transmission of modified lenses” value ([7]; between 400 nm and 750 nm) was “about 100%”.

With “Benzalkonium chloride [Benzalkonium chloride (BAC)]” the cells killed [8] was “about 100%”.
